Results from patent publication US20060173015A1, “Cyclohexyldiamines as selective alpha 1a/1d adrenoreceptor antagonists for the treatment of benign prostatic hypertrophy and lower urinary tract symptoms” (priority 2004, published 2006).

Tested on: MAP
Assay: Phenylephrine-induced MAP in a conscious canine model
Format: in vivo
Settings: conscious dog
Experimental: In-Vivo Evaluation of α1-Adrenergic Antagonists on IUP and MAP in a Conscious Canine Model
An anesthetized dog was fitted with a balloon catheter for the measurement of changes in prostatic IUP and with a number of implanted pressure transducers and telemetry transmitters for measuring MAP.
The pressor effects of challenge doses […] of the α-adrenergic agonist phenylephrine upon IUP and MAP were measured before and at various time points after a single dose (p.o.) of an α-adrenergic antagonist test compound (Compound 69) of the present invention.
Each treatment group was dosed with a test compound (0.1, 0.3, 1.0 and 3.0 mg/kg) in four separate experiments. The first challenge dose of phenylephrine for each treatment group was administered at the time of the test compound dose (time 0). The value for the first challenge dose represents an average of up to three challenge doses administered prior to time 0.
Subsequent challenge doses for all treatment groups were administered at 30 min. then one hour and two hours after time 0.
The final challenge doses for the 0.1 and 0.3 mg/kg groups were administered at four and six hours after time 0. The final challenge doses for the 1.0 mg/kg group were administered at four, six and eight hours after time 0. The final challenge doses for the 3.0 mg/kg group were administered at four, six, 12 and 24 hours after time 0.
A pressure transducer and telemetry transmitter (DSI TA11PA-D70 35 cm, Data Sciences International, St. Paul, Minn.) were implanted according to directions in “PA Device Surgical Manual” provided by the manufacturer.
A test compound was administered via the cephalic or saphenous vein using an appropriately sized IV catheter (Surflo, Terumo Medical Corporation or equivalent).
Prior to test compound administration, IUP and MAP responses to an individualized dose of phenylephrine (either 10 or 15 μg/kg IV, depending on the individual animal's response) was repeated 2 to 3 times to establish a baseline response. After test compound administration, the individualized phenylephrine dose was administered to each animal at predetermined intervals over a period of up to 24 hours.
Data for phenylephrine-induced changes in IUP and MAP were tabulated for each treatment group and each experiment. A mean value and standard deviation for the phenylephrine-induced changes to the effect of a test compound on IUP and MAP at each dose was calculated and tabulated for each treatment group over the length of the study.

Q: COc1ccc(S(=O)(=O)N[C@H]2CC[C@@H](N3CCN(c4ccccc4OCC(F)(F)F)CC3)CC2)cc1OC [Cpd 69, 3,4-Dimethoxy-N-cis-(4-{4-[2-(2,2,2-trifluoro-ethoxy)-phenyl]-piperazin-1-yl}-cyclohexyl)-benzenesulfonamide] was tested. Which “MAP, normalized % of baseline (mean)” value (0.1 mg/kg p.o., 0 hrs (baseline)) did it give?
A: 100%

Q: What about the “MAP, normalized % of baseline (mean)” value (0.1 mg/kg p.o., 0.5 hrs after dose) of the same molecule?
A: 87.7%

Q: And the “MAP, normalized % of baseline (mean)” value (0.1 mg/kg p.o., 1 hrs after dose)?
A: 93.3%

Q: What about the “MAP, normalized % of baseline (mean)” value (0.1 mg/kg p.o., 2 hrs after dose) of the same molecule?
A: 80.1%

Q: And the “MAP, normalized % of baseline (mean)” value (0.1 mg/kg p.o., 4 hrs after dose)?
A: 89.7%

Q: And the “MAP, normalized % of baseline (mean)” value (0.1 mg/kg p.o., 6 hrs after dose)?
A: 91.0%

Q: And the “MAP, normalized % of baseline (mean)” value (0.3 mg/kg p.o., 0 hrs (baseline))?
A: 100%

Q: What about the “MAP, normalized % of baseline (mean)” value (0.3 mg/kg p.o., 0.5 hrs after dose) of the same molecule?
A: 64.9%

Q: And the “MAP, normalized % of baseline (mean)” value (0.3 mg/kg p.o., 1 hrs after dose)?
A: 59.3%

Q: What about the “MAP, normalized % of baseline (mean)” value (0.3 mg/kg p.o., 2 hrs after dose) of the same molecule?
A: 67.7%

Q: What about the “MAP, normalized % of baseline (mean)” value (0.3 mg/kg p.o., 4 hrs after dose) of the same molecule?
A: 85.6%

Q: And the “MAP, normalized % of baseline (mean)” value (0.3 mg/kg p.o., 6 hrs after dose)?
A: 103.9%

Q: What about the “MAP, normalized % of baseline (mean)” value (1.0 mg/kg p.o., 0 hrs (baseline)) of the same molecule?
A: 100%

Q: And the “MAP, normalized % of baseline (mean)” value (1.0 mg/kg p.o., 0.5 hrs after dose)?
A: 47.3%

Q: What about the “MAP, normalized % of baseline (mean)” value (1.0 mg/kg p.o., 1 hrs after dose) of the same molecule?
A: 37.2%

Q: What about the “MAP, normalized % of baseline (mean)” value (1.0 mg/kg p.o., 2 hrs after dose) of the same molecule?
A: 52.8%

Q: What about the “MAP, normalized % of baseline (mean)” value (1.0 mg/kg p.o., 4 hrs after dose) of the same molecule?
A: 61.3%

Q: What about the “MAP, normalized % of baseline (mean)” value (1.0 mg/kg p.o., 6 hrs after dose) of the same molecule?
A: 76.6%

Q: What about the “MAP, normalized % of baseline (mean)” value (1.0 mg/kg p.o., 8 hrs after dose) of the same molecule?
A: 87.8%

Q: And the “MAP, normalized % of baseline (mean)” value (3.0 mg/kg p.o., 0 hrs (baseline))?
A: 100%

Q: And the “MAP, normalized % of baseline (mean)” value (3.0 mg/kg p.o., 0.5 hrs after dose)?
A: 43.4%

Q: What about the “MAP, normalized % of baseline (mean)” value (3.0 mg/kg p.o., 1 hrs after dose) of the same molecule?
A: 19.7%

Q: And the “MAP, normalized % of baseline (mean)” value (3.0 mg/kg p.o., 2 hrs after dose)?
A: 21.7%

Q: And the “MAP, normalized % of baseline (mean)” value (3.0 mg/kg p.o., 4 hrs after dose)?
A: 39.8%

Q: What about the “MAP, normalized % of baseline (mean)” value (3.0 mg/kg p.o., 6 hrs after dose) of the same molecule?
A: 50.2%

Q: And the “MAP, normalized % of baseline (mean)” value (3.0 mg/kg p.o., 12 hrs after dose)?
A: 80.2%

Q: What about the “MAP, normalized % of baseline (mean)” value (3.0 mg/kg p.o., 24 hrs after dose) of the same molecule?
A: 95.1%
